Experiment [1] has as its target T1, Gamma-secretase (Homo sapiens) (UniProt Q96BI3+Q9NZ42+Q8WW43+P49768+Q92542+P49810). Nature of the experiment: Inhibition of gamma-secretase (unknown origin) expressed in N2a NL/N cells coexpressing betaAPPNL and NotchdeltaE assessed as Abeta42 secretion at 100 nM by ELISA. Format: cell-based. (An ELISA detects its analyte on a solid surface through an enzyme-linked reagent.)

For experiment [2], the target named is T1, Gamma-secretase (Homo sapiens). The experiment is described as follows: Inhibition of gamma-secretase (unknown origin) expressed in N2a NL/N cells coexpressing betaAPPNL and NotchdeltaE assessed as Abeta40 secretion at 100 nM by ELISA. Format: cell-based.

Activity calls are given as the source filed them. The calls are words filed in the database; no cut-off is given here.

On to `CC(=O)N[C@H]1CCC[C@@H]1C(=O)N[C@H]1CCC[C@@H]1C(=O)N[C@@H](CS)CC(=O)N[C@H]1CCC[C@@H]1C(=O)N[C@H]1CCC[C@@H]1C(=O)N[C@H]1CCC[C@@H]1C(=O)N[C@H]1CCC[C@@H]1C(=O)N[C@H]1CCC[C@@H]1C(=O)N[C@H]1CCC[C@@H]1C(=O)N[C@H]1CCC[C@@H]1C(=O)N[C@H]1CCC[C@@H]1C(=O)N[C@H]1CCC[C@@H]1C(N)=O`, for which the inhibition result in experiment [1] and in experiment [2] was “Active” in each case.

As to `CC(=O)N[C@H]1CCC[C@@H]1C(=O)N[C@H]1CCC[C@@H]1C(=O)N[C@@H](CCC(N)=O)CC(=O)N[C@H]1CCC[C@@H]1C(=O)N[C@H]1CCC[C@@H]1C(=O)N[C@H]1CCC[C@@H]1C(=O)N[C@H]1CCC[C@@H]1C(=O)N[C@H]1CCC[C@@H]1C(=O)N[C@H]1CCC[C@@H]1C(=O)N[C@H]1CCC[C@@H]1C(=O)N[C@H]1CCC[C@@H]1C(=O)N[C@H]1CCC[C@@H]1C(N)=O`, the inhibition entry in experiment [1] and in experiment [2] was “Active” throughout.

As to `CC(=O)N[C@H]1CCC[C@@H]1C(=O)N[C@H]1CCC[C@@H]1C(=O)N[C@H]1CCC[C@@H]1C(=O)N[C@H]1CCC[C@@H]1C(=O)N[C@H]1CCC[C@@H]1C(=O)N[C@@H](CCCCN)CC(=O)N[C@H]1CCC[C@@H]1C(=O)N[C@H]1CCC[C@@H]1C(=O)N[C@H]1CCC[C@@H]1C(=O)N[C@H]1CCC[C@@H]1C(=O)N[C@H]1CCC[C@@H]1C(=O)N[C@H]1CCC[C@@H]1C(N)=O`, the inhibition entry in experiment [1] and in experiment [2] was “inactive” in each case.

For `CC(=O)N[C@H]1CCC[C@@H]1C(=O)N[C@H]1CCC[C@@H]1C(=O)N[C@H]1CCC[C@@H]1C(=O)N[C@H]1CCC[C@@H]1C(=O)N[C@H]1CCC[C@@H]1C(=O)N[C@H]1CCC[C@@H]1C(=O)N[C@H]1CCC[C@@H]1C(=O)N[C@H]1CCC[C@@H]1C(=O)N[C@@H](CCC(=O)O)CC(=O)N[C@H]1CCC[C@@H]1C(=O)N[C@H]1CCC[C@@H]1C(=O)N[C@H]1CCC[C@@H]1C(N)=O`, the inhibition entry in experiment [1] and in experiment [2] was “inactive” throughout.

In the case of `CC(=O)N[C@H]1CCC[C@@H]1C(=O)N[C@H]1CCC[C@@H]1C(=O)N[C@@H](CCCCN)CC(=O)N[C@H]1CCC[C@@H]1C(=O)N[C@H]1CCC[C@@H]1C(=O)N[C@H]1CCC[C@@H]1C(=O)N[C@H]1CCC[C@@H]1C(=O)N[C@H]1CCC[C@@H]1C(=O)N[C@H]1CCC[C@@H]1C(=O)N[C@H]1CCC[C@@H]1C(=O)N[C@H]1CCC[C@@H]1C(=O)N[C@H]1CCC[C@@H]1C(N)=O`, the inhibition result in experiment [1] and in experiment [2] was “Active” in each case.

Take `CC(=O)N[C@H]1CCC[C@@H]1C(=O)N[C@H]1CCC[C@@H]1C(=O)N[C@H]1CCC[C@@H]1C(=O)N[C@H]1CCC[C@@H]1C(=O)N[C@H]1CCC[C@@H]1C(=O)N[C@H](CC(=O)N[C@H]1CCC[C@@H]1C(=O)N[C@H]1CCC[C@@H]1C(=O)N[C@H]1CCC[C@@H]1C(=O)N[C@H]1CCC[C@@H]1C(=O)N[C@H]1CCC[C@@H]1C(=O)N[C@H]1CCC[C@@H]1C(N)=O)CC(C)C`: the inhibition result in experiment [1] and in experiment [2] was “inactive” throughout.

As to `CC(=O)N[C@H]1CCC[C@@H]1C(=O)N[C@H]1CCC[C@@H]1C(=O)N[C@H]1CCC[C@@H]1C(=O)N[C@H]1CCC[C@@H]1C(=O)N[C@H]1CCC[C@@H]1C(=O)N[C@H]1CCC[C@@H]1C(=O)N[C@H]1CCC[C@@H]1C(=O)N[C@H]1CCC[C@@H]1C(=O)N[C@@H](CC(=O)N[C@H]1CCC[C@@H]1C(=O)N[C@H]1CCC[C@@H]1C(=O)N[C@H]1CCC[C@@H]1C(N)=O)[C@@H](C)O`, the inhibition result in experiment [1] and in experiment [2] was “inactive” in each case.

For the molecule `CC(=O)N[C@H]1CCC[C@@H]1C(=O)N[C@H]1CCC[C@@H]1C(=O)N[C@@H](CCC(=O)O)CC(=O)N[C@H]1CCC[C@@H]1C(=O)N[C@H]1CCC[C@@H]1C(=O)N[C@H]1CCC[C@@H]1C(=O)N[C@H]1CCC[C@@H]1C(=O)N[C@H]1CCC[C@@H]1C(=O)N[C@H]1CCC[C@@H]1C(=O)N[C@H]1CCC[C@@H]1C(=O)N[C@H]1CCC[C@@H]1C(=O)N[C@H]1CCC[C@@H]1C(N)=O`, the inhibition entry in experiment [1] and in experiment [2] was “Active” throughout.

As to `CC(=O)N[C@H]1CCC[C@@H]1C(=O)N[C@H]1CCC[C@@H]1C(=O)N[C@H]1CCC[C@@H]1C(=O)N[C@H]1CCC[C@@H]1C(=O)N[C@H]1CCC[C@@H]1C(=O)N[C@H](CO)CC(=O)N[C@H]1CCC[C@@H]1C(=O)N[C@H]1CCC[C@@H]1C(=O)N[C@H]1CCC[C@@H]1C(=O)N[C@H]1CCC[C@@H]1C(=O)N[C@H]1CCC[C@@H]1C(=O)N[C@H]1CCC[C@@H]1C(N)=O`, the inhibition result in experiment [1] and in experiment [2] was “inactive” each time.

As to `CC(=O)N[C@H]1CCC[C@@H]1C(=O)N[C@H]1CCC[C@@H]1C(=O)N[C@H]1CCC[C@@H]1C(=O)N[C@H]1CCC[C@@H]1C(=O)N[C@H]1CCC[C@@H]1C(=O)N[C@H](CC(=O)N[C@H]1CCC[C@@H]1C(=O)N[C@H]1CCC[C@@H]1C(=O)N[C@H]1CCC[C@@H]1C(=O)N[C@H]1CCC[C@@H]1C(=O)N[C@H]1CCC[C@@H]1C(=O)N[C@H]1CCC[C@@H]1C(N)=O)Cc1ccc(O)cc1`, the inhibition result in experiment [1] and in experiment [2] was “inactive” each time.

For `CC(=O)N[C@H]1CCC[C@@H]1C(=O)N[C@H]1CCC[C@@H]1C(=O)N[C@H]1CCC[C@@H]1C(=O)N[C@H]1CCC[C@@H]1C(=O)N[C@H]1CCC[C@@H]1C(=O)N[C@H]1CCC[C@@H]1C(=O)N[C@H]1CCC[C@@H]1C(=O)N[C@H]1CCC[C@@H]1C(=O)N[C@@H](CC(N)=O)CC(=O)N[C@H]1CCC[C@@H]1C(=O)N[C@H]1CCC[C@@H]1C(=O)N[C@H]1CCC[C@@H]1C(N)=O`, the inhibition result in experiment [1] and in experiment [2] was “inactive” throughout.

As to `CC(=O)N[C@H]1CCC[C@@H]1C(=O)N[C@H]1CCC[C@@H]1C(=O)N[C@@H](CC(=O)N[C@H]1CCC[C@@H]1C(=O)N[C@H]1CCC[C@@H]1C(=O)N[C@H]1CCC[C@@H]1C(=O)N[C@H]1CCC[C@@H]1C(=O)N[C@H]1CCC[C@@H]1C(=O)N[C@H]1CCC[C@@H]1C(=O)N[C@H]1CCC[C@@H]1C(=O)N[C@H]1CCC[C@@H]1C(=O)N[C@H]1CCC[C@@H]1C(N)=O)[C@@H](C)O`, the inhibition entry in experiment [1] and in experiment [2] was “inactive” throughout.

`CC(=O)N[C@H]1CCC[C@@H]1C(=O)N[C@H]1CCC[C@@H]1C(=O)N[C@H]1CCC[C@@H]1C(=O)N[C@H]1CCC[C@@H]1C(=O)N[C@H]1CCC[C@@H]1C(=O)N[C@@H](CCC(=O)O)CC(=O)N[C@H]1CCC[C@@H]1C(=O)N[C@H]1CCC[C@@H]1C(=O)N[C@H]1CCC[C@@H]1C(=O)N[C@H]1CCC[C@@H]1C(=O)N[C@H]1CCC[C@@H]1C(=O)N[C@H]1CCC[C@@H]1C(N)=O`: the inhibition result in experiment [1] and in experiment [2] was “inactive” each time.

With `CC(=O)N[C@H]1CCC[C@@H]1C(=O)N[C@H]1CCC[C@@H]1C(=O)N[C@H]1CCC[C@@H]1C(=O)N[C@H]1CCC[C@@H]1C(=O)N[C@H]1CCC[C@@H]1C(=O)N[C@H]1CCC[C@@H]1C(=O)N[C@H]1CCC[C@@H]1C(=O)N[C@H]1CCC[C@@H]1C(=O)NC(CO)CC(=O)N[C@H]1CCC[C@@H]1C(=O)N[C@H]1CCC[C@@H]1C(=O)N[C@H]1CCC[C@@H]1C(N)=O` (single isomer, unassigned), the inhibition entry in experiment [1] and in experiment [2] was “inactive” each time.

Regarding `CC(=O)N[C@H]1CCC[C@@H]1C(=O)N[C@H]1CCC[C@@H]1C(=O)N[C@H](CC(=O)N[C@H]1CCC[C@@H]1C(=O)N[C@H]1CCC[C@@H]1C(=O)N[C@H]1CCC[C@@H]1C(=O)N[C@H]1CCC[C@@H]1C(=O)N[C@H]1CCC[C@@H]1C(=O)N[C@H]1CCC[C@@H]1C(=O)N[C@H]1CCC[C@@H]1C(=O)N[C@H]1CCC[C@@H]1C(=O)N[C@H]1CCC[C@@H]1C(N)=O)CC(C)C`, the inhibition entry in experiment [1] and in experiment [2] was “Active” throughout.

As for `CC(=O)N[C@H]1CCC[C@@H]1C(=O)N[C@H]1CCC[C@@H]1C(=O)N[C@H]1CCC[C@@H]1C(=O)N[C@H]1CCC[C@@H]1C(=O)N[C@H]1CCC[C@@H]1C(=O)N[C@H]1CCC[C@@H]1C(=O)N[C@H]1CCC[C@@H]1C(=O)N[C@H]1CCC[C@@H]1C(=O)N[C@H](CC(=O)N[C@H]1CCC[C@@H]1C(=O)N[C@H]1CCC[C@@H]1C(=O)N[C@H]1CCC[C@@H]1C(N)=O)Cc1ccc(O)cc1`, the inhibition result in experiment [1] and in experiment [2] was “inactive” in each case.

As to `CC(=O)N[C@H]1CCC[C@@H]1C(=O)N[C@H]1CCC[C@@H]1C(=O)N[C@H]1COC[C@@H]1C(=O)N[C@H]1CCC[C@@H]1C(=O)N[C@H]1CCC[C@@H]1C(=O)N[C@H]1CCC[C@@H]1C(=O)N[C@H]1CCC[C@@H]1C(=O)N[C@H]1CCC[C@@H]1C(=O)N[C@H]1CCC[C@@H]1C(=O)N[C@H]1CCC[C@@H]1C(=O)N[C@H]1CCC[C@@H]1C(=O)N[C@H]1CCC[C@@H]1C(N)=O`, the inhibition result in experiment [1] and in experiment [2] was “Active” in each case.

Consider `CC(=O)N[C@H]1CCC[C@@H]1C(=O)N[C@H]1CCC[C@@H]1C(=O)N[C@H]1CCC[C@@H]1C(=O)N[C@H]1CCC[C@@H]1C(=O)N[C@H]1CCC[C@@H]1C(=O)N[C@@H](CC(N)=O)CC(=O)N[C@H]1CCC[C@@H]1C(=O)N[C@H]1CCC[C@@H]1C(=O)N[C@H]1CCC[C@@H]1C(=O)N[C@H]1CCC[C@@H]1C(=O)N[C@H]1CCC[C@@H]1C(=O)N[C@H]1CCC[C@@H]1C(N)=O`, for which the inhibition result in experiment [1] and in experiment [2] was “inactive” in each case.

For `CC(=O)N[C@H]1CCC[C@@H]1C(=O)N[C@H]1CCC[C@@H]1C(=O)N[C@H](CC(=O)N[C@H]1CCC[C@@H]1C(=O)N[C@H]1CCC[C@@H]1C(=O)N[C@H]1CCC[C@@H]1C(=O)N[C@H]1CCC[C@@H]1C(=O)N[C@H]1CCC[C@@H]1C(=O)N[C@H]1CCC[C@@H]1C(=O)N[C@H]1CCC[C@@H]1C(=O)N[C@H]1CCC[C@@H]1C(=O)N[C@H]1CCC[C@@H]1C(N)=O)Cc1ccc(O)cc1`, the inhibition entry in experiment [1] and in experiment [2] was “inactive” each time.

Turning to `CC(=O)N[C@H]1CCC[C@@H]1C(=O)N[C@H]1CCC[C@@H]1C(=O)N[C@H]1CCC[C@@H]1C(=O)N[C@H]1CCC[C@@H]1C(=O)N[C@H]1CCC[C@@H]1C(=O)N[C@H]1CCC[C@@H]1C(=O)N[C@H]1CCC[C@@H]1C(=O)N[C@H]1CCC[C@@H]1C(=O)N[C@@H](CCCCN)CC(=O)N[C@H]1CCC[C@@H]1C(=O)N[C@H]1CCC[C@@H]1C(=O)N[C@H]1CCC[C@@H]1C(N)=O`, the inhibition result in experiment [1] and in experiment [2] was “inactive” throughout.

The values are drawn from ChEMBL document CHEMBL2331477, “Effect of helical conformation and side chain structure on γ-secretase inhibition by β-peptide foldamers: insight into substrate recognition” (J Med Chem, 2013).
